For twelve molecules, mutagenic call results are on record in PubChem BioAssay AID1259407 (Chemical Carcinogenesis Research Information System (CCRIS), 2018).

This data set relates to CCRIS mutagenicity, Ames/micronucleus/aberration tests. Put plainly: CCRIS mutagenicity studies.
The mark [1] stands for this setting: Test System: AMES SALMONELLA TYPHIMURIUM, Strain/Indicator: TA98, Metabolic Activation: HAMSTER, LIVER, S-9, AROCLOR 1254 (10%), Method: PREINCUBATION
The mark [2] stands for this setting: Test System: AMES SALMONELLA TYPHIMURIUM, Strain/Indicator: TA98, Metabolic Activation: NONE, Method: PREINCUBATION
Setting [3] is: Test System: AMES SALMONELLA TYPHIMURIUM, Strain/Indicator: TA98, Metabolic Activation: RAT, LIVER, S-9, AROCLOR 1254 (10%), Method: PREINCUBATION
[4] abbreviates: Test System: AMES SALMONELLA TYPHIMURIUM, Strain/Indicator: TA100, Metabolic Activation: HAMSTER, LIVER, S-9, AROCLOR 1254 (10%), Method: PREINCUBATION
[5] abbreviates: Test System: AMES SALMONELLA TYPHIMURIUM, Strain/Indicator: TA100, Metabolic Activation: NONE, Method: PREINCUBATION
Setting [6] is: Test System: AMES SALMONELLA TYPHIMURIUM, Strain/Indicator: TA100, Metabolic Activation: RAT, LIVER, S-9, AROCLOR 1254 (10%), Method: PREINCUBATION
The mark [7] stands for this setting: Test System: AMES SALMONELLA TYPHIMURIUM, Strain/Indicator: TA1535, Metabolic Activation: HAMSTER, LIVER, S-9, AROCLOR 1254 (10%), Method: PREINCUBATION
[8] abbreviates: Test System: AMES SALMONELLA TYPHIMURIUM, Strain/Indicator: TA1535, Metabolic Activation: NONE, Method: PREINCUBATION
Where [9] appears, read: Test System: AMES SALMONELLA TYPHIMURIUM, Strain/Indicator: TA1535, Metabolic Activation: RAT, LIVER, S-9, AROCLOR 1254 (10%), Method: PREINCUBATION
Setting [10] is: Test System: AMES SALMONELLA TYPHIMURIUM, Strain/Indicator: TA98, Metabolic Activation: NONE, Method: STANDARD PLATE.
Setting [11] is: Test System: AMES SALMONELLA TYPHIMURIUM, Strain/Indicator: TA100, Metabolic Activation: NONE, Method: STANDARD PLATE.

The source made the active and inactive calls. The rule behind the calls is not given here.

For the molecule `CC(=O)Nc1cccc(N)c1`, the mutagenic call is “active; positive” (Test System: AMES SALMONELLA TYPHIMURIUM, Strain/Indicator: TA97, Metabolic Activation: HAMSTER, LIVER, S-9, AROCLOR 1254 (10%), Method: PREINCUBATION); “inactive; negative” (Test System: AMES SALMONELLA TYPHIMURIUM, Strain/Indicator: TA97, Metabolic Activation: NONE, Method: PREINCUBATION); “active; positive” (Test System: AMES SALMONELLA TYPHIMURIUM, Strain/Indicator: TA97, Metabolic Activation: RAT, LIVER, S-9, AROCLOR 1254 (10%), Method: PREINCUBATION); “active; positive” under setting [1]; “inactive; negative” under setting [2]; “active; positive” under setting [3]. The mutagenic call was “active; positive” under setting [4]; “inactive; negative” under setting [5]; “inactive; negative” under setting [6]; “inactive; negative” under setting [7]; “inactive; negative” under setting [8]; “inactive; negative” under setting [9].

Regarding `COc1c(O)c(OC)c(Cl)c(Cl)c1Cl`, the mutagenic call (Test System: CHINESE HAMSTER V-79, Strain/Indicator: V-79/6-THIOGUANINE, Metabolic Activation: NONE, Method: STANDARD PLATE) was “inactive; negative”.

For the molecule `C(CCOCC1CO1)COCC1CO1` (configuration not stated), the mutagenic call was “active; positive” under setting [4]; “active; positive” under setting [5]; “active; positive” under setting [6]; “active; positive” under setting [7]; “active; positive” under setting [8]; “active; positive” under setting [9].

As to `O[C@@H]1C=C2c3ccccc3-c3cccc(c32)[C@H]1O`, the mutagenic call by setting is: (Test System: AMES SALMONELLA TYPHIMURIUM, Strain/Indicator: TM677, Metabolic Activation: NONE, Method: PREINCUBATION) “active; positive”; (Test System: AMES SALMONELLA TYPHIMURIUM, Strain/Indicator: TM677, Metabolic Activation: RAT, LIVER, POSTMITOCHONDRIAL SUPERNATANT, AROCLOR 1254, Method: PREINCUBATION) “active; positive”.

Regarding `N[C@@H](Cc1ccccc1)C(=O)O`, the mutagenic call under setting [10] is “inactive; negative”; the mutagenic call (Test System: AMES SALMONELLA TYPHIMURIUM, Strain/Indicator: TA98, Metabolic Activation: RAT, LIVER, S-9, AROCLOR 1254, Method: STANDARD PLATE) was “inactive; negative”; the mutagenic call under setting [11] was “inactive; negative”; the mutagenic call (Test System: AMES SALMONELLA TYPHIMURIUM, Strain/Indicator: TA100, Metabolic Activation: RAT, LIVER, S-9, AROCLOR 1254, Method: STANDARD PLATE) is “inactive; negative”.

With `CN(C)CCNC(=O)c1cccc2cc3ccccc3nc12`, under “Test System: AMES SALMONELLA TYPHIMURIUM, Strain/Indicator: TA1537, Metabolic Activation: NONE, Method: STANDARD PLATE”, the mutagenic call was “active; positive”.

For `NNc1ccc([N+](=O)[O-])cc1`, the mutagenic call under setting [2] is “active; positive”; the mutagenic call (Test System: AMES SALMONELLA TYPHIMURIUM, Strain/Indicator: TA98, Metabolic Activation: RAT, LIVER, S-9, KANECHLOR 500, Method: PREINCUBATION) was “active; positive”; the mutagenic call under setting [5] is “active; positive”; the mutagenic call (Test System: AMES SALMONELLA TYPHIMURIUM, Strain/Indicator: TA100, Metabolic Activation: RAT, LIVER, S-9, KANECHLOR 500, Method: PREINCUBATION) was “active; positive”.

Consider `C[n+]1ccc(-c2ccccc2)cc1`, for which the mutagenic call under setting [5] is “inactive; negative” and the mutagenic call (Test System: AMES SALMONELLA TYPHIMURIUM, Strain/Indicator: TA102, Metabolic Activation: NONE, Method: PREINCUBATION) was “inactive; negative”.

For the molecule `O=C1c2c(O)cc(O)cc2O[C@H](c2ccc(O)c(O)c2)[C@H]1O`, the mutagenic call runs as follows: (Test System: Ames Salmonella typhimurium, Strain/Indicator: TA102, Metabolic Activation: Fe ++ (1 uM) with NADPH generating system, Method: Preincubation) “inactive; negative”; (Test System: Ames Salmonella typhimurium, Strain/Indicator: TA102, Metabolic Activation: None, Method: Preincubation) “inactive; negative”; (Test System: Ames Salmonella typhimurium, Strain/Indicator: TA102, Metabolic Activation: Rat, Liver, S-9, Aroclor 1254, Method: Preincubation) “inactive; negative”; (Test System: Ames Salmonella typhimurium, Strain/Indicator: TA102, Metabolic Activation: Rat, Liver, S-9, Aroclor 1254 in 0.154 M KCl, Method: Preincubation) “inactive; negative”; (Test System: E. coli, Strain/Indicator: WP2 uvrA, Metabolic Activation: Fe ++ (1 uM) with NADPH generating system, Method: Preincubation) “inactive; negative. authors say results are positive at 100 and 250 um but results are bar”; (Test System: E. coli, Strain/Indicator: WP2 uvrA, Metabolic Activation: None, Method: Preincubation) “inactive; negative”. Moreover, the mutagenic call (Test System: E. coli, Strain/Indicator: WP2 uvrA, Metabolic Activation: Rat, Liver, S-9, Aroclor 1254, Method: Preincubation) was “inactive; negative”.

With `CC1(C)C2CCC3(CO3)C1C2` (configuration not stated), the mutagenic call under setting [11] is “inactive; negative” and the mutagenic call (Test System: AMES SALMONELLA TYPHIMURIUM, Strain/Indicator: TA1535, Metabolic Activation: NONE, Method: STANDARD PLATE) is “inactive; negative”.

In the case of `CC[C@@H](CO)NCCN[C@@H](CC)CO`, the mutagenic call by setting is: under setting [10], “inactive; negative”; (Test System: AMES SALMONELLA TYPHIMURIUM, Strain/Indicator: TA98, Metabolic Activation: S-9, Method: STANDARD PLATE) “inactive; negative”; under setting [11], “inactive; negative”; (Test System: AMES SALMONELLA TYPHIMURIUM, Strain/Indicator: TA100, Metabolic Activation: S-9, Method: STANDARD PLATE) “inactive; negative”.

Turning to `CC(C)(C)OOC(=O)c1ccccc1`, the mutagenic call is “active; positive” under setting [1]; “active; positive” under setting [2]; “active; positive” under setting [3]; “active; positive” under setting [4]; “inactive; negative” under setting [5]; “inactive; negative” under setting [6]. The mutagenic call is “inactive; negative” under setting [7]; “inactive; negative” under setting [8]; “inactive; negative” under setting [9]; “active; positive” (Test System: AMES SALMONELLA TYPHIMURIUM, Strain/Indicator: TA1537, Metabolic Activation: HAMSTER, LIVER, S-9, AROCLOR 1254 (10%), Method: PREINCUBATION); “active; positive” (Test System: AMES SALMONELLA TYPHIMURIUM, Strain/Indicator: TA1537, Metabolic Activation: NONE, Method: PREINCUBATION); “active; positive” (Test System: AMES SALMONELLA TYPHIMURIUM, Strain/Indicator: TA1537, Metabolic Activation: RAT, LIVER, S-9, AROCLOR 1254 (10%), Method: PREINCUBATION).
